Activity calls are given as the source filed them. No cut-off for these calls is given here.
Key:
[1] = Induction of cell differentiation in C57BL/6 mouse naive regulatory T cells assessed as increase in cell frequency at 3 uM incubated for 72 hrs by flow cytometric analysis (reference value: 24.9%); type: functional
[2] = Induction of cell differentiation in C57BL/6 mouse naive regulatory T cells assessed as increase in IL-10 mRNA level by measuring fold change at 3 uM incubated for 72 hrs by qRT-PCR analysis; type: functional
Mus musculus [3] = assay: Anti-colitis activity in DSS-induced ulcerative colitis C57BL/6 mouse model assessed as CD4+CD25+Foxp3+ Treg cell percentage in spleen at 40 mg/kg, po administered once a day for 10 days by flow cytometric analysis (reference value: 3.3%); type: functional; details: time 10 day
Mus musculus [4] = assay: Anti-colitis activity in DSS-induced ulcerative colitis C57BL/6 mouse model assessed as increase in CD4+CD25+Foxp3+ Treg cell ratio in mesenteric lymph nodes at 40 mg/kg, po administered once a day for 10 days by flow cytometric analysis (reference value: 4.5 %); type: functional; details: time 10 day
Mus musculus [5] = assay: Anti-colitis activity against DSS-induced ulcerative colitis C57BL/6 mouse model assessed as decrease in colon MPO activity at 40 mg/kg, po administered once a day for 10 days; type: functional, organism-based; details: time 10.0 day
Mus musculus [6] = assay: In vivo activation of AhR in C57BL/6 mouse assessed as increase in CYP1A1 mRNA expression at 40 mg/kg, po administered once a day for 10 days by qRT-PCR analysis; type: functional, organism-based; details: time 10.0 day
[7] = biological target: T1, Aryl hydrocarbon receptor (Mus musculus, UniProt P30561); assay: Activation of AhR transcription in C57BL/6 mouse naive T cells assessed as increase in CYP1A1 mRNA expression by measuring fold change at 3 uM by qRT-PCR analysis relative to control; type: cell-based; details: T-cell, read-out: FC
T1 sequence (P30561 whole entry): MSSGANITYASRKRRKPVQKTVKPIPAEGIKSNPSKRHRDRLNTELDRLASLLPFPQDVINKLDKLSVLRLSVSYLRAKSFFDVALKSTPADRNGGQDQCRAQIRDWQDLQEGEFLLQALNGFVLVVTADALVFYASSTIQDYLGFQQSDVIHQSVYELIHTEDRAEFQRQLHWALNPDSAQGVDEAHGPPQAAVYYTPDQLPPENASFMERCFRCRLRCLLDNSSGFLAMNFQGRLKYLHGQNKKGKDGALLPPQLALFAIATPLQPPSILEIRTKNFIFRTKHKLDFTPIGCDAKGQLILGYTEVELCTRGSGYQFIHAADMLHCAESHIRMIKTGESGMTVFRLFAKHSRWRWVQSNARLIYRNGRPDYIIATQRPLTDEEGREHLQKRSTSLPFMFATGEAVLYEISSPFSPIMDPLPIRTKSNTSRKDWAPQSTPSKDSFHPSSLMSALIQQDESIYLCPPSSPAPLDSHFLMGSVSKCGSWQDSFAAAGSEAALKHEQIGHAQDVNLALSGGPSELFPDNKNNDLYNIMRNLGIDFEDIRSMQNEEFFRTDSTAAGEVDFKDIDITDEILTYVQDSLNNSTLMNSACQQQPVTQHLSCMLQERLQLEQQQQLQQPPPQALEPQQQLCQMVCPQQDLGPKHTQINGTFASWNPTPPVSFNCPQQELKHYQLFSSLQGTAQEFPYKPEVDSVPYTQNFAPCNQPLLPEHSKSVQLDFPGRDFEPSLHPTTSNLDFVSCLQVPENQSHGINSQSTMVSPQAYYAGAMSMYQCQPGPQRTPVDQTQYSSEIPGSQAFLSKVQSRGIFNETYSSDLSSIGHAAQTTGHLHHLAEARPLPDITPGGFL

[8] = Induction of cell differentiation in C57BL/6 mouse naive regulatory T cells assessed as increase in […] mRNA level by measuring fold change at 3 uM incubated for 72 hrs by qRT-PCR analysis; type: functional
Mus musculus [9] = assay: Anti-colitis activity in DSS-induced ulcerative colitis C57BL/6 mouse model assessed as CD4+CD25+Foxp3+ Treg cell percentage in spleen at 100 mg/kg, po administered once a day for 10 days by flow cytometric analysis (reference value: 3.3%); type: functional; details: time 10 day
Mus musculus [10] = assay: Anti-colitis activity in DSS-induced ulcerative colitis C57BL/6 mouse model assessed as CD4+CD25+Foxp3+ Treg cell percentage in mesenteric lymph nodes at 100 mg/kg, po administered once a day for 10 days by flow cytometric analysis (reference value: 4.5 %); type: functional; details: time 10 day
Mus musculus [11] = assay: In vivo activation of AhR in C57BL/6 mouse assessed as increase in CYP1A1 mRNA expression at 100 mg/kg, po administered once a day for 10 days by qRT-PCR analysis; type: functional, organism-based; details: time 10.0 day

Row | SMILES | Activity [1] | fold change (FC) [2] | Activity (Mus musculus [3]) | Activity (Mus musculus [4]) | Activity (Mus musculus [5]) | Activity (Mus musculus [6]) | fold induction at 3 µM [7] | fold change (FC) [8] | Activity (Mus musculus [9]) | Activity (Mus musculus [10]) | Activity (Mus musculus [11])
1 | c1ccc2c(Cc3c[nH]c4ccccc34)c[nH]c2c1 [ARUNDINE] | 34.3% | 2 | 2.7% | 6.8% | Active | Active | 1.9 | 2.1 | – | – | –
2 | Nc1ccc(O)c(C(=O)O)c1 [MESALAMINE] | – | – | – | – | – | – | – | – | 2.6% | 4.4% | Active

Source: ChEMBL document CHEMBL5338769, “Discovery of Norisoboldine Analogue III11 as a Novel and Potent Aryl Hydrocarbon Receptor Agonist for the Treatment of Ulcerative Colitis” (J Med Chem, 2023)
